Laboratory results: ChEMBL document CHEMBL3603759, “Ribosome-targeting antibiotics as inhibitors of oncogenic microRNAs biogenesis: Old scaffolds for new perspectives in RNA targeting” (Bioorg Med Chem, 2015)
pIC50, pKd: −log10 of the molar value. Activity calls are given as the source filed them. No cut-off for these calls is given here.

Assays:
[1] = Inhibition of pre-miR-372 (unknown origin) cleavage assessed as reduction of oncogenic microRNAs biogenesis at 200 uM by measuring fluorescence every minute for 5 hrs using 5'-FAM,3'-dabcyl-pre-miRNA beacons by FRET assay in presence of recombinant Dicer
[2] = Binding affinity to 5'-FAM-pre-miR-372 (unknown origin) after 4 hrs by fluorescence assay in presence of 100-fold excess of 15-mer DNA
[3] = Inhibition of pre-miR-17 (unknown origin) cleavage assessed as reduction of oncogenic microRNAs biogenesis at 200 uM by measuring fluorescence every minute for 5 hrs using 5'-FAM,3'-dabcyl-pre-miRNA beacons by FRET assay in presence of recombinant Dicer
[4] = Inhibition of pre-miR-372 (unknown origin) cleavage assessed as reduction of oncogenic microRNAs biogenesis by measuring fluorescence every minute for 5 hrs using 5'-FAM,3'-dabcyl-pre-miRNA beacons by FRET assay in presence of recombinant Dicer
[5] = Binding affinity to 5'-FAM-pre-miR-17 (unknown origin) after 4 hrs by fluorescence assay; details: for pKd: read-out: Kd
[6] = Binding affinity to 5'-FAM-pre-miR-372 (unknown origin) after 4 hrs by fluorescence assay; details: for pKd: read-out: Kd
[7] = Inhibition of pre-miR-373 (unknown origin) cleavage assessed as reduction of oncogenic microRNAs biogenesis by measuring fluorescence every minute for 5 hrs using 5'-FAM,3'-dabcyl-pre-miRNA beacons by FRET assay in presence of recombinant Dicer
[8] = Ratio of Kd for 5'-FAM-pre-miR-372 (unknown origin) in presence of 100-fold excess of 15-mer DNA to Kd for 5'-FAM-pre-miR-372 (unknown origin)
[9] = Inhibition of pre-miR-21 (unknown origin) cleavage assessed as reduction of oncogenic microRNAs biogenesis at 200 uM by measuring fluorescence every minute for 5 hrs using 5'-FAM,3'-dabcyl-pre-miRNA beacons by FRET assay in presence of recombinant Dicer
[10] = Binding affinity to 5'-FAM-pre-miR-372 (unknown origin) assessed as change in total free energy by thermodynamic assay
[11] = Binding affinity to 5'-FAM-pre-miR-372 (unknown origin) after 4 hrs by fluorescence assay in presence of 100-fold excess of Escherichia coli tRNA
[12] = Binding affinity to 5'-FAM-pre-miR-373 (unknown origin) after 4 hrs by fluorescence assay; details: for pKd: read-out: Kd
[13] = Ratio of Kd for 5'-FAM-pre-miR-372 (unknown origin) in presence of 100-fold excess of Escherichia coli tRNA to Kd for 5'-FAM-pre-miR-372 (unknown origin)
[14] = Inhibition of pre-miR-373 (unknown origin) cleavage assessed as reduction of oncogenic microRNAs biogenesis at 200 uM by measuring fluorescence every minute for 5 hrs using 5'-FAM,3'-dabcyl-pre-miRNA beacons by FRET assay in presence of recombinant Dicer
[15] = Inhibition of pre-miR-21 (unknown origin) cleavage assessed as reduction of oncogenic microRNAs biogenesis by measuring fluorescence every minute for 5 hrs using 5'-FAM,3'-dabcyl-pre-miRNA beacons by FRET assay in presence of recombinant Dicer
[16] = Inhibition of pre-miR-17 (unknown origin) cleavage assessed as reduction of oncogenic microRNAs biogenesis by measuring fluorescence every minute for 5 hrs using 5'-FAM,3'-dabcyl-pre-miRNA beacons by FRET assay in presence of recombinant Dicer

| Molecule | inhibition [1] | pKd [2] | inhibition [3] | pIC50 [4] | pKd [5] | pKd [6] | pIC50 [7] | Ratio [8] | inhibition [9] | Activity [10] | pKd [11] | pKd [12] | Ratio [13] | inhibition [14] | pIC50 [15] | Kd [5] | Kd [6] | Kd [12] | pIC50 [16] |
| --- | --- | --- | --- | --- | --- | --- | --- | --- | --- | --- | --- | --- | --- | --- | --- | --- | --- | --- | --- |
| CN[C@@H]1[C@@H](O[C@H]2O[C@H](CO)[C@@H](N)[C@H](O)[C@H]2O)OC2C[C@@H](N)[C@@H](O[C@H]3[C@H](O)[C@@H](O)[C@H](N)C[C@@H]3N)OC2[C@@H]1O (some centres undefined) [APRAMYCIN] | 60% | 5.18 | 60% | 3.79 | 5.99 | 5.52 | 3.47 | 2.2 | 60% | 72% | 5.04 | 5.38 | 3 | 60% | 3.77 |  |  |  |  |
| CC[C@H]1OC(=O)[C@H](C)[C@@H](O[C@H]2C[C@@](C)(OC)[C@@H](O)[C@H](C)O2)[C@H](C)[C@@H](O[C@@H]2O[C@H](C)C[C@H](N(C)C)[C@H]2O)[C@](C)(O)C[C@@H](C)CN(C)[C@H](C)[C@@H](O)[C@]1(C)O [AZITHROMYCIN] |  | 5.13 |  |  | 5.79 | 5.79 |  | 4.5 |  |  | 5.72 | 5.85 | 1.2 |  |  |  |  |  |  |
| NC[C@H]1O[C@H](O[C@H]2[C@H](O)[C@@H](O[C@H]3O[C@H](CO)[C@@H](O)[C@H](N)[C@H]3O)[C@H](N)C[C@@H]2N)[C@H](N)[C@@H](O)[C@@H]1O [BEKANAMYCIN] | inactive |  | inactive |  |  |  |  |  | inactive |  |  |  |  | inactive |  | Not Active | Not Active | Not Active |  |
| O=C(N[C@H](CO)[C@H](O)c1ccc([N+](=O)[O-])cc1)C(Cl)Cl [CHLORAMPHENICOL] |  |  |  |  |  |  |  |  |  |  |  |  |  |  |  | Not Active | Not Active | Not Active |  |
| CCC[C@@H]1C[C@@H](C(=O)N[C@@H]([C@H]2O[C@H](SC)[C@H](O)[C@@H](O)[C@H]2O)[C@H](C)Cl)N(C)C1 [CLINDAMYCIN] |  |  |  |  |  |  |  |  |  |  |  |  |  |  |  | Not Active | Not Active | Not Active |  |
| C[C@H]1c2cccc(O)c2C(=O)C2=C(O)[C@]3(O)C(=O)C(C(N)=O)=C(O)[C@@H](N(C)C)[C@@H]3[C@@H](O)[C@@H]21 [DOXYCYCLINE] | 20% | 5.79 | 20% | 3.25 | 6.03 | 6.04 | 3.44 | 1.8 | 20% | 78% | 5.70 | 5.85 | 2 | 20% | 3.26 |  |  |  | 3.42 |
| CC[C@H]1OC(=O)[C@H](C)[C@@H](O[C@H]2C[C@@](C)(OC)[C@@H](O)[C@H](C)O2)[C@H](C)[C@@H](O[C@@H]2O[C@H](C)C[C@H](N(C)C)[C@H]2O)[C@](C)(O)C[C@@H](C)C(=O)[C@H](C)[C@@H](O)[C@]1(C)O [ERYTHROMYCIN] |  | 4.51 |  |  | 4.56 | 5.21 |  | 5 |  |  | 5.06 | 5.19 | 1.4 |  |  |  |  |  |  |
| CCC[C@@H]1C[C@@H](C(=O)N[C@@H]([C@H]2O[C@H](SC)[C@H](O)[C@@H](O)[C@H]2O)[C@@H](C)O)N(C)C1 [LINCOMYCIN] |  |  |  |  |  |  |  |  |  |  |  |  |  |  |  | Not Active | Not Active | Not Active |  |
| CC(=O)NC[C@H]1CN(c2ccc(N3CCOCC3)c(F)c2)C(=O)O1 [LINEZOLID] |  |  |  |  |  |  |  |  |  |  |  |  |  |  |  | Not Active | Not Active | Not Active |  |
| NC[C@H]1O[C@H](O[C@H]2[C@H](O)[C@@H](O)[C@H](N)C[C@@H]2N)[C@H](N)[C@@H](O)[C@@H]1O [NEAMINE] | 10% | 3.61 | 10% | 3.53 | 4.60 | 3.80 | 3.12 | 1.5 | 10% | 72% | 3.40 | 3.73 | 2.5 | 10% |  |  |  |  |  |
| CN(C)[C@@H]1C(O)=C(C(N)=O)C(=O)[C@@]2(O)C(O)=C3C(=O)c4c(O)cccc4[C@@](C)(O)[C@H]3[C@H](O)[C@@H]12 [OXYTETRACYCLINE] | 10% | 4.99 | 10% | 3.18 | 5.21 | 5.21 | 3.31 | 1.6 | 10% | 90% | 5.10 | 5.28 | 1.3 | 10% | 3.21 |  |  |  | 3.41 |
| NC[C@@H]1O[C@H](O[C@H]2[C@@H](O)[C@H](O[C@@H]3[C@@H](O)[C@H](N)C[C@H](N)[C@H]3O[C@H]3O[C@H](CO)[C@@H](O)[C@H](O)[C@H]3N)O[C@@H]2CO)[C@H](N)[C@@H](O)[C@@H]1O [PAROMOMYCIN] | 10% | 3.78 | 10% | 3.11 | 4.36 | 3.86 | 3.46 | 1.2 | 10% | 61% | 3.88 | 4.04 | 1 | 10% | 3.27 |  |  |  |  |
| COc1ccc(C[C@H](N)C(=O)N[C@H]2[C@@H](O)[C@H](n3cnc4c(N(C)C)ncnc43)O[C@@H]2CO)cc1 [PUROMYCIN] |  |  |  |  | 5.23 | 4.93 |  |  |  |  |  | 4.90 |  |  |  |  |  |  |  |
| CN[C@@H]1[C@H](O)[C@H](NC)[C@H]2O[C@@]3(O)C(=O)C[C@@H](C)O[C@H]3O[C@@H]2[C@H]1O [SPECTINOMYCIN] | inactive |  | inactive |  |  |  |  |  | inactive |  |  |  |  | inactive |  | Not Active | Not Active | Not Active |  |
| CN[C@@H]1[C@H](O[C@H]2[C@H](O[C@H]3[C@H](O)[C@@H](O)[C@H](N=C(N)N)[C@@H](O)[C@@H]3N=C(N)N)O[C@@H](C)[C@]2(O)C=O)O[C@@H](CO)[C@H](O)[C@H]1O [STREPTOMYCIN] | inactive | 4.32 | inactive | 3.17 | 4.73 | 4.57 |  | 1.8 | inactive | 47% | 4.21 | 4.35 | 2 | inactive | 3.16 |  |  |  |  |
| GENTAMICIN [listing 1 of 2 here] |  | 5.09 |  | 3.18 | 5.30 | 5.44 | 3.80 |  |  |  | 5.38 | 5.18 |  |  | 3.62 |  |  |  | 3.27 |
| GENTAMICIN [listing 2 of 2 here] | 10% |  | 10% |  |  |  |  | 4 | 10% | 63% |  |  | 1.1 | 10% |  |  |  |  |  |
